Measured values published in the supplement of paper PMC10307832.

How the values were obtained:
Assay in all cases: relative viability (nuclei count vs DMSO), 5 days (fraction); higher = more cells survive
[1] = compound: COc1cccc2c1C(=O)c1c(O)c3c(c(O)c1C2=O)C[C@@](O)(C(=O)CO)C[C@@H]3O[C@H]1C[C@H](N)[C@H](O)[C@H](C)O1 [Doxorubicin] + COc1cccc2cc(-c3nc([C@H]4CC[C@H](C(=O)O)CC4)n4ncnc(N)c34)[nH]c12 [OSI-027] (partner 0.5 µM)
Procedure, shortened: (§1)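 A single step with final 0.05% Triton X-100, 1% formaldehyde and 1 ug/ml Hoechst fixed the cells and stained nuclei 5 days after treatment. Lung cancer cell lines in 1536-well plates had been treated by pin tool the day after seeding with one drug alone or a fixed anchor-drug dose plus five library-drug doses (not always all listed) in √10 steps, and nuclei were counted on 4× images. Relative viability is the ratio of nuclei in treated wells to nuclei in vehicle wells, taken as the median of duplicate plates.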

[2] = compound: COc1cccc2c1C(=O)c1c(O)c3c(c(O)c1C2=O)C[C@@](O)(C(=O)CO)C[C@@H]3O[C@H]1C[C@H](N)[C@H](O)[C@H](C)O1 [Doxorubicin] + NC(=O)Nc1cc(-c2cccc(F)c2)sc1C(=O)N[C@H]1CCCNC1 [AZD7762] (partner 0.2 µM)
Procedure, shortened: as §1

[3] = compound: COC1=C(C=C(C=C1)C2=CC3=NC=CN3C(=N2)NC4=C(C=CC=N4)C(=O)N)OC [BAY61-3606] + CS(=O)(=O)CCNCc1ccc(-c2ccc3ncnc(Nc4ccc(OCc5cccc(F)c5)c(Cl)c4)c3c2)o1 [Lapatinib] (partner 2 µM)
Procedure, shortened: as §1

[4] = compound: COC1=C(C=C(C=C1)C2=CC3=NC=CN3C(=N2)NC4=C(C=CC=N4)C(=O)N)OC [BAY61-3606] + COc1cc2c(Oc3ccc(NC(=O)C4(C(=O)Nc5ccc(F)cc5)CC4)cc3F)ccnc2cc1OCCCN1CCOCC1 [Foretinib] (partner 0.25 µM)
Procedure, shortened: as §1

Cell Line	relative viability ([1]; first compound 0.001 µM)	relative viability ([1]; first compound 0.003162 µM)	relative viability ([1]; first compound 0.01 µM)	relative viability ([1]; first compound 0.03162 µM)	relative viability ([1]; first compound 0.1 µM)	relative viability ([2]; first compound 0.001 µM)	relative viability ([2]; first compound 0.003162 µM)	relative viability ([2]; first compound 0.01 µM)	relative viability ([2]; first compound 0.03162 µM)	relative viability ([2]; first compound 0.1 µM)	relative viability ([3]; first compound 0.02 µM)	relative viability ([3]; first compound 0.06325 µM)	relative viability ([3]; first compound 0.2 µM)	relative viability ([3]; first compound 0.6325 µM)	relative viability ([3]; first compound 2 µM)	relative viability ([4]; first compound 0.02 µM)	relative viability ([4]; first compound 0.06325 µM)	relative viability ([4]; first compound 0.2 µM)	relative viability ([4]; first compound 0.6325 µM)	relative viability ([4]; first compound 2 µM)
EPLC-272H	0.29	0.275	0.255	0.272	0.28	0.337	0.182	0.164	0.221	0.241	1.18	0.809	0.876	0.878	0.808	0.705	0.6	0.789	0.694	0.397
H3255	0.641	0.517	0.629	0.581	0.594	0.859	0.818	0.821	0.964	0.764	0.257	0.203	0.274	0.249	0.229	0.969	1	0.841	0.995	0.829
HARA	0.454	0.543	0.569	0.509	0.473	1.09	0.25	0.38	0.267	0.377	0.798	0.643	0.721	0.862	0.735	0.926	0.76	0.832	0.887	0.631
HCC-15		0.677	0.635	0.284	0.136	1.21	1.18	1.05	1.03	1.35	0.891	0.921	0.851	0.875	0.792	0.99	0.981	0.963	1.05	0.83
HCC-78	0.433	0.384	0.329	0.354	0.318	0.535	0.606	0.703	0.636	0.503	0.949	0.682	0.82	0.702	0.959	0.519	0.516	0.568	0.545	0.578
HCC-366		1.01	0.934	0.85	0.423	0.278	0.234	0.233	0.117	0.0686	1.05	1.09	1.13	1.08	0.955	0.934	0.942	0.93	0.924	0.893
HCC-827	0.725	0.714	0.796	0.671	0.754	0.134	0.214	0.197	0.191	0.174	0.2	0.2	0.206	0.226	0.217	1.04	1.01	1.11	1.07	1.03
HOP-62	0.832	0.759	0.798	0.719	0.767	0.533	0.54	0.519	0.527	0.397	0.918		1.05	1.06	1.07	1.05	1.04	1.1	1.13	0.815
LC-2-ad	0.629	0.691	0.587	0.386	0.292	0.831	0.781	0.859	0.827	0.725	1.02	0.97	0.951	0.898	0.979	1.05	0.83	0.971	1.11	0.653
LCLC-97TM1	0.516	0.684	0.558	0.573	0.529	0.235	0.218	0.303	0.244	0.211	1.23		1.05	1.05	0.864	0.92	0.943	0.962	1.04	0.765
LK-2	0.175	0.191	0.244	0.187	0.199	0.354	0.578	0.274	0.341	0.251	0.922	0.777	1.01	1.03	0.935	1.24	1.19	1	1.32	0.768
LOU-NH91	0.569	0.748	0.803	0.681	0.69		0.79	0.77	0.722	0.429	0.765	0.681	0.827	0.735	0.669	0.95	0.916	0.985	0.976	0.823
LU99A	0.353	0.338	0.302	0.273	0.315	0.353	0.394	0.429	0.317	0.324	0.97	1.02	0.909	0.976	0.486	0.915	0.656	0.858	0.63	0.526
LXF-289	0.613	0.832	0.794	0.834	0.819	1.04	1.11	1.09	1.2	1.06	0.886	0.945	0.95	0.934	0.992	0.966	0.971	0.978	0.988	0.944
NCI-H23		0.664	0.694	0.537	0.506	0.142	0.249	0.229	0.204	0.208	1.16	1.39	1.11	0.985	0.95	1.05	0.907	1.01	1.03	0.874
NCI-H322M	0.414	0.493	0.566	0.556	0.378	0.514	0.546	0.6	0.502	0.429	0.622	0.612	0.596	0.599	0.553	1.12	0.91	0.981	1.03	0.831

Cell Line	relative viability ([1]; first compound 0.001 µM)	relative viability ([1]; first compound 0.003162 µM)	relative viability ([1]; first compound 0.01 µM)	relative viability ([1]; first compound 0.03162 µM)	relative viability ([1]; first compound 0.1 µM)	relative viability ([2]; first compound 0.001 µM)	relative viability ([2]; first compound 0.003162 µM)	relative viability ([2]; first compound 0.01 µM)	relative viability ([2]; first compound 0.03162 µM)	relative viability ([2]; first compound 0.1 µM)	relative viability ([3]; first compound 0.02 µM)	relative viability ([3]; first compound 0.06325 µM)	relative viability ([3]; first compound 0.2 µM)	relative viability ([3]; first compound 0.6325 µM)	relative viability ([3]; first compound 2 µM)	relative viability ([4]; first compound 0.02 µM)	relative viability ([4]; first compound 0.06325 µM)	relative viability ([4]; first compound 0.2 µM)	relative viability ([4]; first compound 0.6325 µM)	relative viability ([4]; first compound 2 µM)
NCI-H358	0.853	0.642	0.417	0.121	0.0934	0.548	0.542	0.597	0.367	0.258	0.435	0.378	0.477	0.378	0.288	0.773	0.457	0.652	0.637	0.286
NCI-H460	0.614	0.41	0.482	0.0685	0.0255	0.659	0.635	0.561	0.177	0.0853	1.05	1.19	0.938	1.01	0.189	1.05	1	1.05	0.973	0.945
NCI-H596	0.578	0.801	0.799	0.647	0.721	1.13	1.12	0.987	0.986	0.959	1.09	1.02	1.14	1.21	1.04	0.768	0.761	0.841	0.844	0.726
NCI-H647	0.695	0.805	0.771	0.498	0.215	0.352	0.417	0.466	0.19	0.0766	1.13	1.25	1.12	1.11	0.86	1.24	1.1	1.14	1.27	0.878
NCI-H650	0.574	0.544	0.59	0.522	0.495	0.949	0.921	0.948	0.89	0.718	1.16	0.948	0.783	0.884	0.801	1.1	1.02	1.02	1.09	0.8
NCI-H727	0.483	0.713	0.531	0.631	0.556	0.675	0.575		0.497	0.573	0.701	0.742	0.82	0.983	0.753	0.919	0.931	0.887	0.985	0.8
NCI-H838	0.421	0.429	0.387	0.39	0.328	0.921	0.934	0.913	0.919	0.749	1.17	0.875	0.971	0.951	0.621	0.973	0.991	0.947	1.06	0.955
NCI-H1355	0.374	0.422	0.396	0.432	0.389	0.838	0.741	0.741	0.673	0.72	1.07	0.907	0.926	0.948	0.764	0.981	0.911	0.922	0.992	0.761
NCI-H1395	0.633	0.714	0.685	0.603	0.559	0.414	0.435	0.421	0.347	0.377	1.13	1.08	1.34	0.98	0.973	1.13	0.934	0.951	0.995	0.807
NCI-H1437	0.828	0.916	0.842	0.698	0.351	1.11	0.994	1.04	1.09	0.877	0.892	0.915	0.729	0.905	0.683	1.23	1.22	1.31	1.38	1.28
NCI-H1651	0.682	0.679	0.554	0.298	0.22	0.466	0.536	0.399	0.509	0.397	0.979	0.863	0.768	0.826	0.801	0.886	0.713	0.765	0.88	0.739
NCI-H1666	0.778	0.736	0.547	0.45	0.486	0.909	0.762	0.882	0.795	0.596	0.668		0.523	0.649	0.445	1.06	1.02	0.987	0.991	0.918
NCI-H1734	0.799	0.6	0.594	0.395	0.432	0.515	0.58	0.539	0.318	0.283	0.991	1.07	1	1.14	0.758	0.825	0.79	0.743	0.836	0.411
NCI-H1755	0.631	0.711	0.747	0.721	0.704	0.523	0.489	0.393	0.485	0.491	1.08	1.01	0.994	1.12	0.95	0.932	0.867	0.974	0.913	0.882
NCI-H1793		0.334	0.253	0.265	0.292		0.432	0.574	0.298	0.358	0.479	0.775	0.823	0.948	0.796	0.79	0.674		0.692	0.476
